Measurements reported in patent US11161865B2, “Radiolabeled and fluorescent PARP inhibitors for imaging and radiotherapy” (THE TRUSTEES OF THE UNIVERSITY OF PENNSYLVANIA, priority 2017, dated 2021).

Assays:
neuroblastoma cell lines = assay: Cell viability dose response curves in neuroblastoma cell lines; assay type: cell-based; conditions: in vitro, FIG. 2A
Procedure: Two sets of cell viability assays were performed to characterize [^211At]-Compound 1 in neuroblastoma, ovarian, and breast cancer cells. […] The first assay performed was a screen of 25 cell lines at a single concentration of 5 μCi/mL. […] Following treatment cell viability was assessed using a commercially available kit that measures ATP and data was normalized to healthy controls to produce % surviving fraction. […] Cells were treated for 72 hrs followed by evaluation of cell viability. […] Effective concentrations to reduce 50% growth compared to healthy controls were calculated using standard curve fitting software.

[1] = test system: phosphorylated ATM and H2AX; assay: Flow cytometry of phosphorylated ATM and H2AX (DNA double strand breaks); assay type: cell-based; conditions: 1 μCi/mL
Procedure: To accomplish this, γH2AX and PARP-1 were measured after being treated NLF cells for 1, 4, or 24 hours at doses of 0.1, or 1 μCi/mL. Data was analyzed by quantifying small regions of interest in the nucleus of cells and by nuclear co-localization. […] In flow cytometry experiments, DNA damage was measured by quantifying phosphorylated ATM and H2AX. Lastly, cell cycle analysis was evaluated using propidium iodide staining in control vs. [^211At]-Compound 1 treated cells.

[2] = test system: IMR-05 neuroblastoma xenograft; assay: In vivo biodistribution in IMR-05 neuroblastoma xenograft model; set-up: species or system nude SHC mice; conditions: 5 μCi intravenously; for tumor versus normal tissue distribution of activity: 2 hrs
Procedure: To evaluate the in vivo biodistribution of [211A]-Compound 1, an IMR-05 neuroblastoma xenograft model in nude SHC mice was utilized. Xenografts were generated by the subcutaneous injection of 5-10 million IMR-05 neuroblastoma cells. Tumors were then allowed to engraft for 3-4 weeks when they reached 200-300 mm^3. Animals were then intravenously injected with 5 μCi of [211At]-Compound 1 and tissues were harvested at time points of […], 1 and 2 hrs. Samples were then assayed for radioactivity on a gamma counter and data was normalized to percent injected dose by divining the amount of radioactivity in the tissue by the total amount injected. […] Tissue was then flash frozen and 20 micron thick sections were produced using a cryotome. Sections were then exposed to phosphor films and films were read on a digital phosphorimager.

With `O=C1NCCn2c(-c3ccc([211At])cc3)nc3cccc1c32` [[^211At]-Compound 1] the specificity of cytotoxicity (neuroblastoma cell lines) was “PARP-1 specific”, the “increase in phosphorylation of ATM and H2AX (DNA double strand breaks) compared to control” value [1] was 98% and the “significant deastatination (accumulation of activity in lung, thyroid (neck), or stomach)” value [2] was “not observed”. For the same molecule, the “tumor versus normal tissue distribution of activity” value [2] was “concentration of activity in the tumor” and the “tumor versus normal tissue distribution of activity” value ([2]; listed as 211At-Compound 1) was “higher tumor to tissue ratios in the majority of normal organs”.
